Test results reported in patent EP4667458A1 (Kanaph Therapeutics Inc., priority 2023, dated 2024).

Experiments:
SOS1 = target: T1, SOS1 (Homo sapiens, UniProt Q07889); experiment: SOS-catalyzed nucleotide exchange assay (HTRF, SOS1-mediated GTP loading of KRAS G12D); type: biochemical; conditions: GST-KRAS G12D, HIS-SOS1cat, EDA-GTP-DY-647P1; compound 128 pM to 10 µM; read-out: SOS-catalyzed nucleotide exchange assay (IC50 range, Grade)
T1 construct: adding equal amounts of HIS-SOS1cat (160 nM; Cytoskeleton, US); His; purchased Cytoskeleton, US
T1 sequence (Q07889 564-1049 limits assumed): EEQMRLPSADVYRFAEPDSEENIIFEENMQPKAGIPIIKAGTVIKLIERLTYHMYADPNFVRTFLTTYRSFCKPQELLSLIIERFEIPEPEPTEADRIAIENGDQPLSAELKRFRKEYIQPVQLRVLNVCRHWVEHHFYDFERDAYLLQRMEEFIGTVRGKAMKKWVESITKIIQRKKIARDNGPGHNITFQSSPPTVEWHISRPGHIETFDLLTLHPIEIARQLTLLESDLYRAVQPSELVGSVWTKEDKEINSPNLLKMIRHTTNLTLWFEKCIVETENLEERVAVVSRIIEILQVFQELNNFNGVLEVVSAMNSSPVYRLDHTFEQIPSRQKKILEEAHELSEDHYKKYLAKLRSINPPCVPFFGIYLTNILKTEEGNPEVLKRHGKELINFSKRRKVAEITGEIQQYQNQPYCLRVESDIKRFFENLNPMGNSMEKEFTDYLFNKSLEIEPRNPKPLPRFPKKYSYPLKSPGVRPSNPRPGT
Method in brief: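 SOS1cat (HIS-tagged) preincubated 10 min at room temperature with compound (128 pM-10 µM), then GST-KRAS G12D with anti-GST terbium added; GTP loading tracked as HTRF with a DY-647P1 GTP analogue after 30 min, buffer HEPES pH 7.4. GEF-free wells for normalization; IC50 derived.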

KRAS^G12C::SOS1 = target: T2, KRAS^G12C::SOS1 (Homo sapiens, UniProt Q07889); experiment: KRAS G12C::SOS1 protein-protein interaction (PPI) inhibition assay (HTRF binding kit)
T2 sequence (Q07889 1-1333): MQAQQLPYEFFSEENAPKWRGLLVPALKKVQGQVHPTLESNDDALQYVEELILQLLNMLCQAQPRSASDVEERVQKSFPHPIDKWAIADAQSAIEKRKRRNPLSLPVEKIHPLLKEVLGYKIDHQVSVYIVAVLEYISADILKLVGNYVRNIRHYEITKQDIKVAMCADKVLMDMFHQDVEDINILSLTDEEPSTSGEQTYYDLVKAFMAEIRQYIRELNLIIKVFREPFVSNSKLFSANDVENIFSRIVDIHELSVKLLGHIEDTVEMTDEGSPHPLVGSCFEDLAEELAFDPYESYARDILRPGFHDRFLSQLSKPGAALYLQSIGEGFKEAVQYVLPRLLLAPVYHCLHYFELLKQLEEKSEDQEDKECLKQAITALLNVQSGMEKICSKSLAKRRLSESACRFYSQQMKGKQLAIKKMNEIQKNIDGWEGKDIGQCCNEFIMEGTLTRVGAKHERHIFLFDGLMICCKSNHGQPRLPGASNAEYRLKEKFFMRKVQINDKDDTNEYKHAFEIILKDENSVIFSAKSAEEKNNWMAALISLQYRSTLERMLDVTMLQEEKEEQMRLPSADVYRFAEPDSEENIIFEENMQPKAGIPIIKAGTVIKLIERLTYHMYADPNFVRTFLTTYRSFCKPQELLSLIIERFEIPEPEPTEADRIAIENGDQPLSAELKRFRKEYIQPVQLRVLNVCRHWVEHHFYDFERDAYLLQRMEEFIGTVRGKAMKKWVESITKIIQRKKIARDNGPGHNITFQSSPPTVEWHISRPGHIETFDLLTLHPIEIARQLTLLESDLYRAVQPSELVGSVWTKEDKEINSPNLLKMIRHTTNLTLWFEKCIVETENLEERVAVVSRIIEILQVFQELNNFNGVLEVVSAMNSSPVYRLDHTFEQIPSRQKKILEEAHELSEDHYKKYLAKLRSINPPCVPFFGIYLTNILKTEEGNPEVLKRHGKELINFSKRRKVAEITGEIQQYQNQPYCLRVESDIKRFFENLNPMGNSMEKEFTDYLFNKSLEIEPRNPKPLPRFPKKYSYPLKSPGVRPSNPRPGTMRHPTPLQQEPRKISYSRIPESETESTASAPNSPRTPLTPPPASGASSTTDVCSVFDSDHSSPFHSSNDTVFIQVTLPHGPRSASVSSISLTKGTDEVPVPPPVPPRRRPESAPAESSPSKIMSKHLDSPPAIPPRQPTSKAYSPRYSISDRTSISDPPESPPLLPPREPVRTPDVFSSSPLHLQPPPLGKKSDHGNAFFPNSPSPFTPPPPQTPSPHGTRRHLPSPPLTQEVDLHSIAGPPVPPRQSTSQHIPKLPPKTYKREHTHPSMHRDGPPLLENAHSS

Structure (SMILES) | IC50 (SOS1) | IC50 (KRAS^G12C::SOS1)
COc1ccc(-n2nc(C(=O)N[C@H](C)c3cc(N)cc(C(F)(F)F)c3)ccc2=O)c(F)c1 [Example 152, N-[(1R)-1-[3-amino-5-(trifluoromethyl)phenyl]ethyl]-1-(2-fluoro-4-methoxy-phenyl)-6-oxo-pyridazine-3-carboxamide] | < 1000 nM | < 1000 nM
CCn1nncc1-c1cccc(-n2cc(C(=O)N[C@H](C)c3cccc(C(F)(F)F)c3F)ccc2=O)c1 [Example B04, N-[(R)-1-[2-fluoro-3-(trifluoromethyl)phenyl]ethyl]-1-[m-(1-ethyl-1H-1,2,3-triazol-5-yl)phenyl]-6-oxo-1,6-dihydronicotinamide] | < 1000 nM | < 1000 nM
C[C@@H](NC(=O)c1ccc(=O)n(-c2cccc3[nH]ccc23)n1)c1cc(N)cc(C(F)(F)F)c1 [Example 160, N-[(1R)-1-[3-amino-5-(trifluoromethyl)phenyl]ethyl]-1-(1H-indol-4-yl)-6-oxo-pyridazine-3-carboxamide] | 1000 to 10000 nM | < 1000 nM
Cc1c([C@@H](C)NC(=O)c2ccc(=O)n(-c3cncc(-c4ccnn4C)c3)n2)cc(N)cc1C(F)(F)F [Example B05, N-[(1R)-1-[5-amino-2-methyl-3-(trifluoromethyl)phenyl]ethyl]-1-[5-(2-methylpyrazol-3-yl)-3-pyridyl]-6-oxo-pyridazine-3-carboxamide] | < 1000 nM | < 1000 nM
COc1ccc(-n2cc(C(=O)N[C@H](C)c3cccc(C(F)(F)CO)c3F)ccc2=O)c(F)c1OC [Example 140, N-[(1R)-1-[3-(1,1-difluoro-2-hydroxy-ethyl)-2-fluoro-phenyl]ethyl]-1-(2-fluoro-3,4-dimethoxy-phenyl)-6-oxo-pyridine-3-carboxamide] | < 1000 nM | < 1000 nM
C[C@@H](NC(=O)c1ccc(=O)n(-c2ccccc2CO)n1)c1cc(N)cc(C(F)(F)F)c1 [Example 156, N-[(1R)-1-[3-amino-5-(trifluoromethyl)phenyl]ethyl]-1-[2-(hydroxymethyl)phenyl]-6-oxo-pyridazine-3-carboxamide] | 1000 to 10000 nM | 1000 to 10000 nM
C[C@@H](NC(=O)c1ccc(=O)n(-c2cccc(F)c2)n1)c1cc(N)cc(C(F)(F)F)c1 [Example 158, N-[(1R)-1-[3-amino-5-(trifluoromethyl)phenyl]ethyl]-1-(3-fluorophenyl)-6-oxo-pyridazine-3-carboxamide] | < 1000 nM | < 1000 nM
COc1ccc(-n2nc(C(=O)N[C@H](C)c3cccc(C(F)(F)CO)c3F)ccc2=O)c(OC)c1 [Example 151, N-[(1R)-1-[3-(1,1-difluoro-2-hydroxy-ethyl)-2-fluoro-phenyl]ethyl]-1-(2,4-dimethoxyphenyl)-6-oxo-pyridazine-3-carboxamide] | < 1000 nM | < 1000 nM
C[C@@H](NC(=O)c1ccc(=O)n(-c2cccc3cc[nH]c23)n1)c1cc(N)cc(C(F)(F)F)c1 [Example 155, N-[(1R)-1-[3-amino-5-(trifluoromethyl)phenyl]ethyl]-1-(1H-indole-7-yl)-6-oxo-pyridazine-3-carboxamide] | 1000 to 10000 nM | < 1000 nM
C[C@@H](NC(=O)c1ccc(=O)n(-c2cc(CO)ccc2F)n1)c1cc(N)cc(C(F)(F)F)c1 [Example 159, N-[(1R)-1-[3-amino-5-(trifluoromethyl)pheny 1]ethyl]-1-[2-fluoro-5-(hydroxymethyl)phenyl] -6-oxo-pyridazine-3-carboxamide] | < 1000 nM | < 1000 nM
CC(C)Oc1ccc(-n2nc(C(=O)N[C@H](C)c3cc(N)cc(C(F)(F)F)c3)ccc2=O)cc1 [Example 142, N-[(1R)-1-[3-amino-5-(trifluoromethyl)phenyl]ethyl]-1-(4-isopropoxyphenyl)-6-oxo-pyridazine-3-carboxamide] | < 1000 nM | < 1000 nM
COCc1ccccc1-n1nc(C(=O)N[C@H](C)c2cc(N)cc(C(F)(F)F)c2)ccc1=O [Example 157, N-[(1R)-1-[3-amino-5-(trifluoromethyl)phenyl]ethyl]-1-[2-(methoxymethyl)phenyl]-6-oxo-pyridazine-3-carboxamide] | 1000 to 10000 nM | 1000 to 10000 nM
C[C@@H](NC(=O)c1ccc(=O)n(-c2cccnc2F)c1)c1cc(N)cc(C(F)(F)F)c1 [Example 148, N-[(1R)-1-[3-amino-5-(trifluoromethyl)phenyl]ethyl]-1-(2-fluoro-3-pyridyl)-6-oxo-pyridine-3-carboxamide] | > 10000 nM | > 10000 nM
Cc1cc(C(=O)N[C@H](C)c2cc(N)cc(C(F)(F)F)c2F)nn(-c2cncc(-c3cnnn3C)c2)c1=O [Example B03, N-[(1R)-1-[5-amino-2-fluoro-3-(trifluoromethyl)phenyl]ethyl]-5-methyl-1-[5-(3-methyltriazol-4-yl)-3-pyridyl]-6-oxo-pyridazine-3-carboxamide] | < 1000 nM | < 1000 nM
